Target: T1, Hypoxanthine-guanine phosphoribosyltransferase (Homo sapiens, UniProt P00492)
T1 sequence (P00492 whole entry): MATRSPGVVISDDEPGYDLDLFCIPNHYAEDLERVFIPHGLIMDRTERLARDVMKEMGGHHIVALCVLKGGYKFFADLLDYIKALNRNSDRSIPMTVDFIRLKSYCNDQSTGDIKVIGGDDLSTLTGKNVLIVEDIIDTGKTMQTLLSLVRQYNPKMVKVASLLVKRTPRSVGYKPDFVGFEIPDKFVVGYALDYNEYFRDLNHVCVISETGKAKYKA
Assay: Kinetic inhibition constant of compound with human Hypoxanthine Phosphoribosyltransferase (HPRT)

Ki: 16 µM
SMILES: O=C(Nc1cc2c3ccccc3ccc2c2ccccc12)C(Cl)Cl

Reference: ChEMBL document CHEMBL1144870 (J Med Chem, 2003)
